According to paper PMC10245146, “CNS4 causes subtype‐specific changes in agonist efficacy and reversal potential of permeant cations in NMDA receptors” (Pharmacology Research & Perspectives, 2023):

Biological target: T1, GluN1/2B NMDA receptors (Rattus norvegicus, UniProt P35439+Q00960)
T1 construct: SEP (super-ecliptic pHluorin; printed only as 'sep' in the plasmid name); host or cells: Xenopus oocytes (cRNA injection)
Experiment: TEVC agonist dose-response, Xenopus oocytes expressing 1/2B
Format: cell-based
Details: with 30 μM CNS4
Excerpt: NMDA receptor constructs: cDNA encoding the NMDA receptor1a subunit (GluN1a) was obtained from Dr. Nakanishi (Kyoto, Japan). cDNA encoding the GluN2B (pci_sepGluN2B), originally developed in the Malinow lab,[33] was purchased from Addgene (cat# 23998), Cambridge, MA. cDNA encoding the GluN2C and GluN2D were purchased from GenScript, New Jersey, USA. Mutated GluN1, 2A and 2B cDNA constructs capable of assembling as GluN1/2A/2B triheteromeric (1/2AB) receptors[34] were obtained from Dr. Paoletti (Laboratoire de Neurobiologie, CNRS). These constructs have been previously tested for 1/2AB receptor activity of GluN1/2A receptor‐selective potentiators.[35] […]
Electrophysiological responses were measured using a standard two‐microelectrode voltage‐clamp workstation (Warner Instruments model OC‐725C) designed to provide a fast clamp of large cells. […] Response magnitude was determined in Xenopus oocytes expressing different NMDA receptor subunits (GluN1/2A, 1/2B, 1/2C, 1/2D, and 1/2A/2B) by the steady plateau response elicited by bath application of different agonist concentrations. […] Statistical significance was determined at the overall alpha level 0.05, using appropriate statistical methods as described in all figure captions. […]

T1 sequence (Q00960 27-1482, other chains not shown): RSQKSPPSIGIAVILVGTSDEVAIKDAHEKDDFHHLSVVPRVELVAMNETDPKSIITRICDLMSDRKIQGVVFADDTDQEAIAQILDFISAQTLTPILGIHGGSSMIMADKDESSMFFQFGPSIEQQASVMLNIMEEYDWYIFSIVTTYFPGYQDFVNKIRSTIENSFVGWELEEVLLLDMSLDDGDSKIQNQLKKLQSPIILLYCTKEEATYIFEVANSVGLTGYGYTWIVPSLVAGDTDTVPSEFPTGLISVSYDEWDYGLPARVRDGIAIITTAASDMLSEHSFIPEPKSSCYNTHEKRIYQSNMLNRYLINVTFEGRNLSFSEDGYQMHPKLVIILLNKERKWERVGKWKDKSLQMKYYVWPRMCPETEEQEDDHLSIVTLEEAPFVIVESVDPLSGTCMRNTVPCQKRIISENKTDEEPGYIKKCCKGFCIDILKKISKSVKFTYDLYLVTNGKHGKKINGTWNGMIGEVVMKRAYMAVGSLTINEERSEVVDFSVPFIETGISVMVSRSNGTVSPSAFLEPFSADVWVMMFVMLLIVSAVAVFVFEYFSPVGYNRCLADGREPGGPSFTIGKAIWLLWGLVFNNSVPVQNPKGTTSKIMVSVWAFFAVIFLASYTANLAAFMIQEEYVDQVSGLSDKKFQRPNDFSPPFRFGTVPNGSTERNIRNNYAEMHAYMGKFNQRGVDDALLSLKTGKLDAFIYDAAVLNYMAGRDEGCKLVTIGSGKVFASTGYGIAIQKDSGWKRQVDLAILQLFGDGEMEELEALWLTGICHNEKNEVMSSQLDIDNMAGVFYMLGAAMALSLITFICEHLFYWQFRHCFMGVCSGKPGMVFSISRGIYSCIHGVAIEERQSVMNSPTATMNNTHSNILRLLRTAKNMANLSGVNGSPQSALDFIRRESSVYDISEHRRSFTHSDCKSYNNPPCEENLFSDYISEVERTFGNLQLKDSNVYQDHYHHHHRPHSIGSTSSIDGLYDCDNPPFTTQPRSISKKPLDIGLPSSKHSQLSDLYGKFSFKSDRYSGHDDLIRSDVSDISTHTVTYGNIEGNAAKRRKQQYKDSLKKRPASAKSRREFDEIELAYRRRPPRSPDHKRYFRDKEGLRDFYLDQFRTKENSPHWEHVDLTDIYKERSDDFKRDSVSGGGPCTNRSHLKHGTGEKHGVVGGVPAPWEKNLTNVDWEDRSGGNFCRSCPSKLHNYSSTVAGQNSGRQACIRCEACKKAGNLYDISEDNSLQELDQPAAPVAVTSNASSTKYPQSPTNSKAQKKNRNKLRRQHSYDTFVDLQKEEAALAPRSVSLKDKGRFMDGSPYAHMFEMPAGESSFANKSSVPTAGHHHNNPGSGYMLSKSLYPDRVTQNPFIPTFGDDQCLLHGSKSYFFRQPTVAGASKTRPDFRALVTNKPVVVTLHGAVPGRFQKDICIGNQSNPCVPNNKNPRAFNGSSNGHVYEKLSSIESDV

O=C(NC(=S)N1CCCCC1c1cccnc1)c1ccc(F)cc1 (centres unmarked) [CNS4]
Glycine efficacy: relative fold change in current at highest glycine concentration (100 μM glutamate constant, relative to 1 μM glycine, p = .0303): 0.88 ± 0.07 fold
Glutamate efficacy: relative fold change in current at highest glutamate concentration (100 μM glycine constant, relative to 1 μM glutamate, p = .5104): 4.27 ± 0.82 fold
